Results: ChEMBL document CHEMBL3621125, “Click-tailed coumarins with potent and selective inhibitory action against the tumor-associated carbonic anhydrases IX and XII” (Bioorg Med Chem, 2015)

Legend:
Carbonic anhydrase 9 = Carbonic anhydrase 9 (Homo sapiens, UniProt Q16790); assay: Inhibition of human carbonic anhydrase 9 incubated for 6 hrs by stopped flow carbon-di-oxide hydrase assay
Carbonic anhydrase 1 = Carbonic anhydrase 1 (Homo sapiens, UniProt P00915); assay: Inhibition of human carbonic anhydrase 1 incubated for 6 hrs by stopped flow carbon-di-oxide hydrase assay
Carbonic anhydrase 2 = Carbonic anhydrase 2 (Homo sapiens, UniProt P00918); assay: Inhibition of human carbonic anhydrase 2 incubated for 6 hrs by stopped flow carbon-di-oxide hydrase assay

Chain of Carbonic anhydrase 1 (P00915 whole entry): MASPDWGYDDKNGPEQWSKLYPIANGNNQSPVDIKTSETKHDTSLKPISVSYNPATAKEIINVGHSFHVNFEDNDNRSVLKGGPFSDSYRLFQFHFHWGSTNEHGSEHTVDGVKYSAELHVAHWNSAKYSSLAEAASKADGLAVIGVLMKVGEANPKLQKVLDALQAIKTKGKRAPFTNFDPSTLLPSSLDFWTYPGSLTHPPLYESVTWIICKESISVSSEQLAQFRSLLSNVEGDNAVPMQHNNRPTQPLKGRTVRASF

SMILES | Ki (Carbonic anhydrase 9) | Ki (Carbonic anhydrase 1) | Ki (Carbonic anhydrase 2)
O=c1ccc2ccc(OCc3cn(-c4ccccc4)nn3)cc2o1 | 24.5 nM | > 10000 nM | > 10000 nM
O=c1ccc2ccc(OCc3cn(-c4ccc(F)cc4)nn3)cc2o1 | 24 nM |  | > 10000 nM
Cc1cc(=O)oc2cc(-n3cc(CNc4ccccc4)nn3)ccc12 | 34.4 nM |  | 9740 nM
Cc1cc(=O)oc2cc(-n3cc(COc4ccc5ccc(=O)oc5c4)nn3)ccc12 | 22.8 nM | > 10000 nM | > 10000 nM
Cc1cc(=O)oc2cc(-n3cc(CSc4ccccc4)nn3)ccc12 |  |  | > 10000 nM
NS(=O)(=O)c1ccc(-n2cc(COc3ccc4ccc(=O)oc4c3)nn2)cc1 | 14.3 nM |  | > 10000 nM
O=c1ccc2ccc(OCc3cn(-c4ccc(C(F)(F)F)cc4)nn3)cc2o1 |  |  | > 10000 nM
O=c1ccc2ccc(OCc3cn(-c4cccc(Br)c4)nn3)cc2o1 | 27.5 nM | > 10000 nM | > 10000 nM

Second part, the molecule after the results:

Ki (Carbonic anhydrase 9) | Ki (Carbonic anhydrase 1) | Ki (Carbonic anhydrase 2) | SMILES
28.8 nM |  | 99.6 nM | O=C(O)c1ccc(-n2cc(COc3ccc4ccc(=O)oc4c3)nn2)cc1
24.9 nM |  | > 10000 nM | O=c1ccc2ccc(OCc3cn(-c4cccc(F)c4)nn3)cc2o1
23.6 nM |  | > 10000 nM | COc1cccc(-n2cc(COc3ccc4ccc(=O)oc4c3)nn2)c1
26.9 nM |  | > 10000 nM | O=c1ccc2ccc(OCc3cn(-c4ccc(O)cc4)nn3)cc2o1
33.1 nM |  | > 10000 nM | Cc1cc(=O)oc2cc(-n3cc(COc4ccccc4)nn3)ccc12
31.2 nM | > 10000 nM | > 10000 nM | O=c1ccc2ccc(OCc3cn(-c4cccc(Cl)c4)nn3)cc2o1
